Patent publication US20180334436A1 (VIIV HEALTHCARE UK LIMITED, priority 2015, published 2018)

Test system: HIV
Assay: MT4 assay (anti-HIV activity)
Type: cell-based
Conditions: Human immunodeficiency virus 1, 96 h, antiviral HIV activity in HTLV-1 transformed cell line MT-4; luciferase read 96 hours later; 10 point dose response
Outline: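 MT-4 cells infected with HIV, with inhibition readout by CellTiter-Glo luminescence at 96 h relative to no-compound control. Cytotoxicity measured in parallel under the same conditions. IC50 from a 10-point, 3-4-fold dilution series spanning >1000-fold, fitted with a four-parameter logistic equation.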

Row | Compound | IC50
1 | Cc1c(-c2c(C)c3c(c(C)c2[C@H](OC(C)(C)C)C(=O)O)CCN(C2CCCCC2)C3)cc(Cl)c2c1CCCO2 (atropisomer, axis not shown; (M)) [Example 89, (S)(M)-2-(tert-butoxy)-2-(7-(8-chloro-5-methylchroman-6-yl)-2-cyclohexyl-5,8-dimethyl-1,2,3,4-tetrahydroisoquinolin-6-yl)acetic Acid] | 12 nM
2 | Cc1c(-c2c(C)c3c(c(C)c2[C@H](OC(C)(C)C)C(=O)O)CC(=O)N(C2CCC(F)(F)CC2)C3)cc(F)c2c1CCCO2 (atropisomer, axis not shown) [Example 114, (S)-2-(tert-butoxy)-2-((R)-2-(4,4-difluorocyclohexyl)-7-(8-fluoro-5-methylchroman-6-yl)-5,8-dimethyl-3-oxo-1,2,3,4-tetrahydroisoquinolin-6-yl)acetic Acid] | 3 nM
3 | Cc1ccc(-c2c(C)c3c(c(C)c2[C@H](OC(C)(C)C)C(=O)O)CCN(S(=O)(=O)CC2CCCCC2)C3)cc1 [Example 58, (S)-2-(tert-butoxy)-2-(2-((cyclohexylmethyl)sulfonyl)-5,8-dimethyl-7-(p-tolyl)-1,2,3,4-tetrahydroisoquinolin-6-yl)acetic Acid] | 284 nM
4 | Cc1c(-c2c(C)c3c(c(C)c2[C@H](OC(C)(C)C)C(=O)O)CC(=O)N(C2CCN(C)CC2)C3)cc(F)c2c1CCCO2 (atropisomer, axis not shown) [Example 112, (S)-2-(tert-butoxy)-2-((R)-7-(8-fluoro-5-methylchroman-6-yl)-5,8-dimethyl-2-(1-methylpiperidin-4-yl)-3-oxo-1,2,3,4-tetrahydroisoquinolin-6-yl)acetic Acid] | 1040 nM
5 | Cc1ccc(-c2c(C)c3c(c(C)c2[C@H](OC(C)(C)C)C(=O)O)CCN(C(=O)c2cccnc2)C3)cc1 [Example 43, (S)-2-(tert-butoxy)-2-(5,8-dimethyl-2-nicotinoyl-7-(p-tolyl)-1,2,3,4-tetrahydroisoquinolin-6-yl)acetic Acid] | 635 nM
6 | Cc1ccc(-c2c(C)c3c(c(C)c2[C@H](OC(C)(C)C)C(=O)O)CCN(C(=O)C2CCCCC2)C3)cc1 [Example 47, (S)-2-(tert-butoxy)-2-(2-(cyclohexanecarbonyl)-5,8-dimethyl-7-(p-tolyl)-1,2,3,4-tetrahydroisoquinolin-6-yl)acetic Acid] | 51 nM
7 | Cc1ccc(-c2c(C)c3c(c(C)c2C(OC(C)(C)C)C(=O)O)CN(C(=O)C(=O)N2CCCCC2)CC3)cc1 (stereo not shown) [Example 5, 2-(tert-Butoxy)-2-(5,8-dimethyl-2-(2-oxo-2-(piperidin-1-yl)acetyl)-6-(p-tolyl)-1,2,3,4-tetrahydroisoquinolin-7-yl)acetic Acid] | 157 nM
8 | Cc1c(-c2c(C)c3c(c(C)c2[C@H](OC(C)(C)C)C(=O)O)CC(=O)N(CC2CCCCC2)C3)cc(F)c2c1CCCO2 (atropisomer, axis not shown) [Example 106, (S)-2-(tert-butoxy)-2-((R)-2-(cyclohexylmethyl)-7-(8-fluoro-5-methylchroman-6-yl)-5,8-dimethyl-3-oxo-1,2,3,4-tetrahydroisoquinolin-6-yl)acetic Acid] | 3 nM
9 | Cc1c(-c2c(C)c3c(c(C)c2[C@H](OC(C)(C)C)C(=O)O)CC(=O)N(C2CCCCC2)C3)ccc2c1NCCO2 (atropisomer, axis not shown) [Example 119, (S)-2-(tert-butoxy)-2-((R)-2-cyclohexyl-5,8-dimethyl-7-(5-methyl-3,4-dihydro-2H-benzo[b][1,4]oxazin-6-yl)-3-oxo-1,2,3,4-tetrahydroisoquinolin-6-yl)acetic Acid] | 8 nM
10 | Cc1ccc(-c2c(C)c3c(c(C)c2[C@H](OC(C)(C)C)C(=O)O)CCN(S(=O)(=O)NC2CCCCC2)C3)cc1 [Example 63, (S)-2-(tert-butoxy)-2-(2-(N-cyclohexylsulfamoyl)-5,8-dimethyl-7-(p-tolyl)-1,2,3,4-tetrahydroisoquinolin-6-yl)acetic Acid] | 119 nM
11 | Cc1ccc(-c2c(C)c3c(c(C)c2[C@H](OC(C)(C)C)C(=O)O)CCN(C(=O)c2ccncc2)C3)cc1 [Example 44, (S)-2-(tert-butoxy)-2-(2-isonicotinoyl-5,8-dimethyl-7-(p-tolyl)-1,2,3,4-tetrahydroisoquinolin-6-yl)acetic Acid] | 1010 nM
12 | Cc1ccc(-c2c(C)c3c(c(C)c2C(OC(C)(C)C)C(=O)O)C(=O)N(Cc2ccccc2)CC3)cc1 (stereo not shown) [Example 121, 2-(2-benzyl-5,8-dimethyl-1-oxo-6-(p-tolyl)-1,2,3,4-tetrahydroisoquinolin-7-yl)-2-(tert-butoxy)acetic Acid] | 474 nM
13 | Cc1ccc(-c2c(C)c3c(c(C)c2C(OC(C)(C)C)C(=O)O)CN(c2ccccc2)CC3)cc1 (stereo not shown) [Example 8, 2-(tert-Butoxy)-2-(5,8-dimethyl-2-phenyl-6-(p-tolyl)-1,2,3,4-tetrahydroisoquinolin-7-yl)acetic Acid] | 6480 nM
14 | Cc1ccc(-c2c(C)c3c(c(C)c2[C@H](OC(C)(C)C)C(=O)O)CCN(S(=O)(=O)C2CCCCC2)C3)cc1 [Example 45, (S)-2-(tert-butoxy)-2-(2-(cyclohexylsulfonyl)-5,8-dimethyl-7-(p-tolyl)-1,2,3,4-tetrahydroisoquinolin-6-yl)acetic Acid] | 17 nM
15 | Cc1c(-c2c(C)c3c(c(C)c2[C@H](OC(C)(C)C)C(=O)O)CC(=O)N(C2CCCCC2(C)C)C3)cc(F)c2c1CCCO2 (stereo partly drawn) [Example 116, (2S)-2-(tert-butoxy)-2-((7R)-2-(2,2-dimethylcyclohexyl)-7-(8-fluoro-5-methylchroman-6-yl)-5,8-dimethyl-3-oxo-1,2,3,4-tetrahydroisoquinolin-6-yl)acetic Acid] | 3 nM
16 | Cc1c(-c2c(C)c3c(c(C)c2[C@H](OC(C)(C)C)C(=O)O)CCN(C(=O)c2cccc(OC(C)C)c2)C3)cc(F)c2c1CCCO2 [Example 93, (S)-2-(tert-Butoxy)-2-((R)-7-(8-fluoro-5-methylchroman-6-yl)-2-(3-isopropoxybenzoyl)-5,8-dimethyl-1,2,3,4-tetrahydroisoquinolin-6-yl)acetic Acid] | 178 nM
